Experimental data as given in ChEMBL document CHEMBL1201862, “PubChem BioAssay data set” (2004).
Where “and” joins values, the source holds several entries; their conditions need not be identical. Identical values can stand only once.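 Method: 48-hour compound exposure of cells in 96-well plates, five concentrations, linear interpolation of endpoints. The concentration for 50% growth inhibition is given as GI50.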 Calls of active or inactive are those of the source. No stated cut-off is given here; in the data, active = GI50 up to about 1.1 µM and inactive = higher.

Columns and labels:
Assay in all cases: DTP human tumour cell line panel, 48 h
A549 = tested on: A549
HCT-15 = tested on: HCT-15
HL-60 = tested on: HL-60
HOP-62 = tested on: HOP-62
LOX IMVI = tested on: LOX IMVI
MCF7 = tested on: MCF7
MDA-N = tested on: MDA-N
MOLT-4 = tested on: MOLT-4
Malme-3M = tested on: Malme-3M
NCI/ADR-RES = tested on: NCI/ADR-RES
OVCAR-8 = tested on: OVCAR-8
RXF 393 = tested on: RXF 393
SK-MEL-28 = tested on: SK-MEL-28
SK-OV-3 = tested on: SK-OV-3
T47D = tested on: T47D
U-251 = tested on: U-251
UO-31 = tested on: UO-31
Hs-578T = tested on: Hs-578T
SR = tested on: SR

| Structure (SMILES) | GI50 (A549) | GI50 (HCT-15) | GI50 (HL-60) | GI50 (HOP-62) | GI50 (LOX IMVI) | GI50 (MCF7) | GI50 (MDA-N) | GI50 (MOLT-4) | GI50 (Malme-3M) | GI50 (NCI/ADR-RES) | GI50 (OVCAR-8) | GI50 (RXF 393) | GI50 (SK-MEL-28) | GI50 (SK-OV-3) | GI50 (T47D) | GI50 (U-251) | GI50 (UO-31) | GI50 (Hs-578T) | GI50 (SR) |
| --- | --- | --- | --- | --- | --- | --- | --- | --- | --- | --- | --- | --- | --- | --- | --- | --- | --- | --- | --- |
| COc1ccc(Nc2c[nH]c(=O)[nH]c2=O)cc1 | > 100 µM (inactive) | > 100 µM | > 100 µM (inactive) | > 100 µM (inactive) | > 100 µM (inactive) | > 100 µM (inactive) | > 100 µM (inactive) | > 100 µM (inactive) | > 100 µM (inactive) | > 100 µM (inactive) | > 100 µM (inactive) | > 100 µM (inactive) | > 100 µM (inactive) | > 100 µM (inactive) | > 100 µM (inactive) | > 100 µM (inactive) | > 100 µM (inactive) |  |  |
| Cc1ccccc1Nc1nc2ccccc2nc1NS(=O)(=O)c1ccccc1 | > 100 µM (inactive) | > 100 µM | > 100 µM (inactive) | 68.1 µM (inactive) | > 100 µM (inactive) | > 100 µM (inactive) |  | > 100 µM (inactive) | > 100 µM (inactive) | > 100 µM (inactive) | > 100 µM (inactive) | > 100 µM (inactive) | > 100 µM (inactive) | > 100 µM (inactive) | > 100 µM (inactive) | 67.9 µM (inactive) | > 100 µM (inactive) | > 100 µM (inactive) | > 100 µM (inactive) |
| N#CC1=CNc2sccc2S1(=O)=O | > 100 µM (inactive) | 61.9 µM |  | > 100 µM (inactive) | > 100 µM (inactive) | > 100 µM (inactive) | > 100 µM (inactive) | 39.6 µM (inactive) | > 100 µM (inactive) | > 100 µM (inactive) | > 100 µM (inactive) |  | > 100 µM (inactive) | > 100 µM (inactive) | 72.9 µM (inactive) | > 100 µM (inactive) | 92.9 µM (inactive) | > 100 µM (inactive) |  |
| Cc1nc(N)sc1/N=N/c1cc(Cl)c([N+](=O)[O-])cc1Cl | 12.8 µM (inactive) | 21.4 µM | 22.9 µM (inactive) | 33.7 µM (inactive) | 16.9 µM (inactive) | 26.9 µM (inactive) |  | 8.24 µM (inactive) | 12 µM (inactive) | 20.6 µM (inactive) | 14.6 µM (inactive) | 34.4 µM (inactive) | 10.7 µM (inactive) | 74.6 µM (inactive) | 35.9 µM (inactive) | 16.3 µM (inactive) | 24.9 µM (inactive) | 21.9 µM (inactive) | 13.6 µM (inactive) |
| CC1(C)CC(=O)c2c(nc(SSc3nc4c(c(-c5ccccc5)c3C#N)C(=O)CC(C)(C)C4)c(C#N)c2-c2ccccc2)C1 | > 10 µM (inactive) | > 10 µM | > 10 µM (inactive) | > 10 µM (inactive) | > 10 µM (inactive) | > 10 µM (inactive) |  | > 10 µM (inactive) | > 10 µM (inactive) | > 10 µM (inactive) | > 10 µM (inactive) | > 10 µM (inactive) | > 10 µM (inactive) | > 10 µM (inactive) | > 10 µM (inactive) | > 10 µM (inactive) | > 10 µM (inactive) | > 10 µM (inactive) |  |
| N#C/C(C(=O)Nc1ccccc1)=C(/N)N1CCCC1 | > 100 µM (inactive) | > 100 µM | > 100 µM (inactive) | > 100 µM (inactive) | > 100 µM (inactive) |  | > 100 µM (inactive) | > 100 µM (inactive) | > 100 µM (inactive) | > 100 µM (inactive) | > 100 µM (inactive) | > 100 µM (inactive) | > 100 µM (inactive) | > 100 µM (inactive) | 35.2 µM (inactive) | > 100 µM (inactive) | 97.9 µM (inactive) | > 100 µM (inactive) | > 100 µM (inactive) |
| C=CCCCN(C(=O)c1ccccc1)c1ccc(C(=O)OC)o1 | > 100 µM (inactive) | > 100 µM | 19.3 µM (inactive) | > 100 µM (inactive) | > 100 µM (inactive) | > 100 µM (inactive) | 51.9 µM (inactive) | 91.4 µM (inactive) | > 100 µM (inactive) | 52.5 µM (inactive) | > 100 µM (inactive) | > 100 µM (inactive) |  | > 100 µM (inactive) | 34 µM (inactive) |  | > 100 µM (inactive) | > 100 µM (inactive) |  |
| Cc1c2c(OCCCCN3CCN(c4ncccn4)CC3)nn(C)c(=O)c2c(C)n1-c1ccccc1 | 20.7 µM (inactive) | 17.8 µM | 21.1 µM (inactive) | 25.7 µM (inactive) | 20.4 µM (inactive) | 16.4 µM (inactive) |  | 26.8 µM (inactive) | 20.2 µM (inactive) | 21.3 µM (inactive) | 24.7 µM (inactive) | 18.6 µM (inactive) | 18.4 µM (inactive) | 18.7 µM (inactive) | 17.9 µM (inactive) | 18.1 µM (inactive) | 15.8 µM (inactive) | 26.2 µM (inactive) |  |
| CC1C2CC(CC2=O)C1(C)C (configuration not stated) | > 100 µM (inactive) |  | > 100 µM (inactive) | > 100 µM (inactive) |  | > 100 µM (inactive) | > 100 µM (inactive) | > 100 µM (inactive) | > 100 µM (inactive) |  | > 100 µM (inactive) | > 100 µM (inactive) | > 100 µM (inactive) | > 100 µM (inactive) | > 100 µM (inactive) | > 100 µM (inactive) | > 100 µM (inactive) | > 100 µM (inactive) | > 100 µM (inactive) |
| N#Cc1c(-c2ccccc2)c(C#N)c(=S)n(C2OC(CO)C(O)C(O)C2O)c1N (configuration not stated) | > 100 µM (inactive) | > 100 µM | > 100 µM (inactive) |  | 86.9 µM (inactive) |  | > 100 µM (inactive) |  | > 100 µM (inactive) |  | > 100 µM (inactive) | > 100 µM (inactive) | > 100 µM (inactive) |  | 52.6 µM (inactive) and 68.5 µM (inactive) | > 100 µM (inactive) |  | 79.8 µM (inactive) | > 100 µM (inactive) |
| O=C(N(C1=CCCC1)N(c1ccccc1)c1ccccc1)C(F)(F)F | 26.4 µM (inactive) | 21.4 µM | 20.3 µM (inactive) | 25.5 µM (inactive) | 15.8 µM (inactive) | 19.7 µM (inactive) | 23.9 µM (inactive) | 14 µM (inactive) | 3.76 µM (inactive) | 28.8 µM (inactive) | 29.9 µM (inactive) | 17 µM (inactive) | 28.4 µM (inactive) | 40.1 µM (inactive) | 17 µM (inactive) | 19.8 µM (inactive) | 31.6 µM (inactive) |  | 31 µM (inactive) |
| O=C(CCCN1CC=C(n2c(=O)[nH]c3ccccc32)CC1)c1cccs1 | > 100 µM (inactive) | > 100 µM | > 100 µM (inactive) | > 100 µM (inactive) | > 100 µM (inactive) | 11.8 µM (inactive) | > 100 µM (inactive) | 45.6 µM (inactive) | > 100 µM (inactive) | > 100 µM (inactive) | > 100 µM (inactive) | > 100 µM (inactive) | > 100 µM (inactive) | > 100 µM (inactive) | > 100 µM (inactive) | > 100 µM (inactive) | > 100 µM (inactive) |  | > 100 µM (inactive) |
| C=C(Br)C(Cl)(CBr)CCC(Br)C(C)(C)Cl (configuration not stated) | > 10 µM (inactive) |  | > 10 µM (inactive) | > 10 µM (inactive) |  | 7.83 µM (inactive) | > 10 µM (inactive) | > 10 µM (inactive) |  | > 10 µM (inactive) | > 10 µM (inactive) | > 10 µM (inactive) | > 10 µM (inactive) | > 10 µM (inactive) | > 10 µM (inactive) | > 10 µM (inactive) | > 10 µM (inactive) |  | > 10 µM (inactive) |
| Cc1csc(-n2nc(C)cc2C)n1 | > 100 µM (inactive) | > 100 µM | > 100 µM (inactive) | > 100 µM (inactive) | > 100 µM (inactive) | > 100 µM (inactive) | > 100 µM (inactive) | 2.38 µM (inactive) | > 100 µM (inactive) | > 100 µM (inactive) | > 100 µM (inactive) | > 100 µM (inactive) | > 100 µM (inactive) | > 100 µM (inactive) | > 100 µM (inactive) | > 100 µM (inactive) | > 100 µM (inactive) | > 100 µM (inactive) |  |
| Cc1cc2nc(-c3cc(C(C)(C)C)c(O)c(C(C)(C)C)c3)[nH]c2cc1C | 2.44 µM (inactive) | 6.55 µM | 13.8 µM (inactive) | > 100 µM (inactive) | 4.16 µM (inactive) |  | 3.49 µM (inactive) | 1.82 µM (inactive) | > 100 µM (inactive) | > 68.7 µM (inactive) | 12.7 µM (inactive) | > 100 µM (inactive) | > 100 µM (inactive) | > 100 µM (inactive) | > 100 µM (inactive) | 2.64 µM (inactive) | 6.17 µM (inactive) | 17.2 µM (inactive) | 1.06 µM (active) |
| COC(=O)n1c(C)c(C=O)c2ccc(OC)cc21 | 43.7 µM (inactive) | 31.1 µM | 31.3 µM (inactive) | 16.4 µM (inactive) | 30.1 µM (inactive) | 37.2 µM (inactive) | > 10 µM (inactive) | 42.2 µM (inactive) | 99.8 µM (inactive) | 49.4 µM (inactive) | 81.7 µM (inactive) | 30.6 µM (inactive) |  | 33.8 µM (inactive) | 72.3 µM (inactive) |  | 34.4 µM (inactive) |  | 34.5 µM (inactive) |
| O/N=C1\CCc2nonc2\C1=N/Nc1ccccc1 | > 100 µM (inactive) | > 100 µM | > 100 µM (inactive) | > 100 µM (inactive) | > 100 µM (inactive) |  | > 100 µM (inactive) | > 100 µM (inactive) | > 100 µM (inactive) | > 100 µM (inactive) | > 100 µM (inactive) | > 100 µM (inactive) | > 100 µM (inactive) | > 100 µM (inactive) | 57.3 µM (inactive) | > 100 µM (inactive) | 30.5 µM (inactive) | > 100 µM (inactive) | > 100 µM (inactive) |
